Measurements reported in the supplement of paper PMC10307832.

Tests used:
Assay in all cases: relative viability (nuclei count vs DMSO), 5 days (fraction); higher = more cells survive
Apatinib + OSI-027 = compound: N#CC1(c2ccc(NC(=O)c3cccnc3NCc3ccncc3)cc2)CCCC1 [Apatinib] + COc1cccc2cc(-c3nc([C@H]4CC[C@H](C(=O)O)CC4)n4ncnc(N)c34)[nH]c12 [OSI-027] (partner 0.5 µM)
How it was run: (§1)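 One day after seeding in 1536-well plates, lung cancer cell lines were dosed by pin tool. Dosing was either single-drug or a fixed anchor-drug dose plus five library-drug doses (not always all listed) in √10 steps. After 5 days, nuclei were stained in one fix-and-stain step and counted on 4× images, and relative viability is the nuclei count of treated wells over that of vehicle wells, given as the median of duplicate plates.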

Apatinib + Crizotinib = compound: N#CC1(c2ccc(NC(=O)c3cccnc3NCc3ccncc3)cc2)CCCC1 [Apatinib] + C[C@@H](Oc1cc(-c2cnn(C3CCNCC3)c2)cnc1N)c1c(Cl)ccc(F)c1Cl [Crizotinib] (partner 1 µM)
How it was run: as §1

Metformin + Olaparib = compound: CN(C)C(=N)NC(=N)N [Metformin] + O=C(c1cc(Cc2n[nH]c(=O)c3ccccc23)ccc1F)N1CCN(C(=O)C2CC2)CC1 [Olaparib] (partner 8 µM)
How it was run: as §1

Apatinib + Trametinib = compound: N#CC1(c2ccc(NC(=O)c3cccnc3NCc3ccncc3)cc2)CCCC1 [Apatinib] + CC(=O)Nc1cccc(-n2c(=O)n(C3CC3)c(=O)c3c(Nc4ccc(I)cc4F)n(C)c(=O)c(C)c32)c1 [Trametinib] (partner 0.02 µM)
How it was run: as §1

| Cell Line | relative viability (Apatinib + OSI-027; first compound 0.08 µM) | relative viability (Apatinib + OSI-027; first compound 0.253 µM) | relative viability (Apatinib + OSI-027; first compound 0.8 µM) | relative viability (Apatinib + OSI-027; first compound 2.53 µM) | relative viability (Apatinib + OSI-027; first compound 8 µM) | relative viability (Apatinib + Crizotinib; first compound 0.08 µM) | relative viability (Apatinib + Crizotinib; first compound 0.253 µM) | relative viability (Apatinib + Crizotinib; first compound 0.8 µM) | relative viability (Apatinib + Crizotinib; first compound 2.53 µM) | relative viability (Apatinib + Crizotinib; first compound 8 µM) | relative viability (Metformin + Olaparib; first compound 10 µM) | relative viability (Metformin + Olaparib; first compound 31.62 µM) | relative viability (Metformin + Olaparib; first compound 100 µM) | relative viability (Metformin + Olaparib; first compound 316.23 µM) | relative viability (Metformin + Olaparib; first compound 1000 µM) | relative viability (Apatinib + Trametinib; first compound 0.08 µM) | relative viability (Apatinib + Trametinib; first compound 0.253 µM) | relative viability (Apatinib + Trametinib; first compound 0.8 µM) | relative viability (Apatinib + Trametinib; first compound 2.53 µM) | relative viability (Apatinib + Trametinib; first compound 8 µM) |
| --- | --- | --- | --- | --- | --- | --- | --- | --- | --- | --- | --- | --- | --- | --- | --- | --- | --- | --- | --- | --- |
| NCI-H1792 | 0.778 | 0.659 | 0.693 | 0.475 | 0.439 | 0.97 | 0.988 | 0.949 | 0.96 | 0.832 | 0.463 | 0.39 | 0.498 | 0.358 | 0.402 | 0.433 | 0.436 | 0.349 | 0.342 | 0.302 |
| NCI-H596 | 0.795 | 0.656 | 0.653 | 0.486 | 0.545 | 0.923 | 1.12 | 1.07 | 0.861 | 0.969 | 0.817 | 0.795 | 0.78 | 0.74 | 0.734 | 0.89 | 0.831 | 0.803 | 0.696 | 0.722 |
| NCI-H23 | 0.637 | 0.658 | 0.535 | 0.46 | 0.377 | 0.49 | 0.578 | 0.421 | 0.49 | 0.57 | 0.252 | 0.299 | 0.279 | 0.26 | 0.293 | 0.477 | 0.393 | 0.427 | 0.426 | 0.31 |
| HCC-15 | 0.719 | 0.691 | 0.658 | 0.628 | 0.509 | 0.85 | 0.814 | 0.811 | 0.799 | 0.717 | 0.532 | 0.615 | 0.47 | 0.571 | 0.585 | 0.393 | 0.295 | 0.327 | 0.367 | 0.308 |
| HCC-44 | 0.457 | 0.524 | 0.395 | 0.446 | 0.522 | 0.807 | 0.858 | 0.779 | 0.716 | 0.705 | – | 0.893 | 0.822 | 0.947 | 0.929 | 1.08 | 0.993 | 1.07 | 1.09 | 0.811 |
| COR-L23 | 0.844 | 0.792 | 0.673 | 0.669 | 0.6 | 0.627 | 0.647 | 0.648 | 0.52 | 0.565 | 0.256 | 0.3 | 0.336 | 0.231 | 0.254 | 0.721 | 0.666 | 0.574 | 0.466 | 0.376 |
| HCC-78 | 0.355 | 0.298 | 0.384 | 0.34 | 0.332 | 0.328 | 0.325 | 0.326 | 0.347 | 0.346 | – | 1.01 | 1.07 | 0.979 | 0.443 | 0.717 | 0.683 | 0.781 | 0.651 | 0.61 |
| UMC-11 | 0.574 | 0.437 | 0.479 | 0.464 | 0.312 | 0.619 | 0.57 | 0.617 | 0.519 | 0.493 | 0.337 | 0.269 | 0.31 | 0.332 | 0.276 | 0.816 | 0.686 | 0.631 | 0.668 | 0.647 |
| NCI-H3122 | 0.952 | 0.64 | 0.969 | 0.955 | 0.845 | 0.3 | 0.246 | 0.256 | 0.27 | 0.328 | 0.442 | 0.555 | 0.587 | 0.54 | 0.507 | 0.251 | 0.234 | 0.247 | 0.181 | 0.176 |
| BEN | 0.283 | 0.277 | 0.3 | 0.299 | 0.317 | 0.957 | 1 | 0.94 | 0.671 | 0.65 | 1.11 | 1.18 | 1.23 | 1.1 | 0.708 | 1.22 | 0.944 | 1.11 | 0.948 | 0.687 |
| LU99A | 0.317 | 0.277 | 0.259 | 0.243 | 0.263 | 0.585 | 0.55 | 0.526 | 0.444 | 0.458 | 0.203 | 0.251 | 0.202 | 0.232 | 0.241 | 0.58 | 0.552 | 0.543 | 0.486 | 0.29 |
| EKVX | 0.684 | 0.688 | 0.654 | 0.639 | 0.558 | 0.793 | 1.06 | 0.941 | 0.654 | 0.671 | – | 0.729 | 0.769 | 0.71 | 0.683 | 0.419 | 0.362 | 0.32 | 0.392 | 0.251 |
| NCI-H1437 | 0.84 | 0.954 | 0.861 | 0.615 | 0.645 | 1.01 | 1 | 0.92 | 0.726 | 0.632 | 0.579 | 0.59 | 0.593 | 0.595 | 0.576 | 0.526 | 0.532 | 0.433 | 0.314 | 0.348 |
| A-427 | 0.52 | 0.465 | 0.479 | 0.476 | 0.404 | 0.902 | 0.969 | 0.919 | 0.808 | 0.705 | 0.645 | 0.773 | 0.708 | 0.625 | 0.447 | 0.832 | 0.741 | 0.726 | 0.737 | 0.521 |
| SK-LU-1 | 0.326 | 0.395 | 0.298 | 0.303 | 0.246 | 1.04 | 0.806 | 0.761 | 0.785 | 0.566 | 0.356 | 0.375 | 0.502 | 0.389 | 0.398 | 0.498 | 0.541 | 0.545 | 0.495 | 0.446 |
| NCI-H2405 | 0.621 | 0.579 | 0.714 | 0.604 | 0.626 | 0.936 | 0.863 | 0.883 | 0.762 | 0.811 | – | 0.905 | 0.813 | 0.635 | 0.506 | 0.594 | 0.625 | 0.599 | 0.527 | 0.44 |
